Patent US20190175744A1, “INSULIN-INCRETIN CONJUGATES” (Merck Sharp & Dohme Corp., priority 2016, published 2019)

Assays:
human GLP1R = human GLP1R (Homo sapiens, UniProt P43220); assay: cAMP activity assay, cells expressing human GLP1R; format: cell-based
Experimental: (§1) Activity of the incretin peptides or the conjugates at the Glucagon receptor (GCGR) and GLP-1 receptor (GLP1R) may be measured in a cAMP activity assay as follows.
(§2) Peptides are dissolved in 100% DMSO and serially diluted to generate 10 point titrations. The peptide solutions are then transferred into 384-well assay plates (150 nL/well). Assay ready frozen cells expressing human GLP1R or human GCGR are suspended in growth media consisting of DMEM medium (GIBCO), 10% FBS (GIBCO), 1×NEAA(GIBCO), 1×P/S (GIBCO), 10 μg/mL Blasticidin (GIBCO) and 200 μg/mL Hygromycin (GIBCO). […] The cell suspensions (15 μL) are then added to the assay plates containing the peptide solutions (30,000 cells/well for human GCGR; 10,000 cells/well for human GLP1R). The cells are incubated for one hour at room temperature in the dark.
(§3) Production of cAMP may be determined using HitHunterr cAMPXS kits (DiscoverX) following the manufacturer's protocol. The plates are incubated for overnight at room temperature in the dark. Luminescence may be measured using an EnVision Multilabel plate reader (Perkin Elmer). Native GLP-1 and Glucagon (Bachem) may be used as control peptides. EC50 values may be calculated using uses a 4 parameter logistic fit based on the Levenberg-Marquardt algorithm.

human GCGR = biological target: T1, human GCGR (Homo sapiens, UniProt P47871); assay: cAMP activity assay, cells expressing human GCGR; format: cell-based; settings: for GCGR/GLP1R ratio: Table 5, ratio of hGCGR EC50 to hGLP1R EC50;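 for all read-outs here: cAMP production read by luminescence after one hour of peptide exposure at room temperature, EC50 from logistic curve fit, native glucagon and GLP-1 as control peptides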
T1 construct: expressed in transfected cells; grown with Blasticidin and Hygromycin
T1 sequence (P47871 26-477): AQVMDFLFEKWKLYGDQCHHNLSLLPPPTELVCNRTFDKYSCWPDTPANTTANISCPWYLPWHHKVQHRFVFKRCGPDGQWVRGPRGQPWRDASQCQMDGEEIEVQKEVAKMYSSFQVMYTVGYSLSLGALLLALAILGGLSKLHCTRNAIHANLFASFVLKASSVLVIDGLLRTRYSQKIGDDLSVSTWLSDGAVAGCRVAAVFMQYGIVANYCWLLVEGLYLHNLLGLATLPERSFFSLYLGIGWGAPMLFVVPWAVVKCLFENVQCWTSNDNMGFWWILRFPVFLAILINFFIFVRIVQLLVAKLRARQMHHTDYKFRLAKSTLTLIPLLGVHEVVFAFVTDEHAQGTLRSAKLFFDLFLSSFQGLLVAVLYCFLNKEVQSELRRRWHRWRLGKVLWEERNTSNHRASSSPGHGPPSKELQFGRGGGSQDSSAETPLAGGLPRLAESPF
Experimental: as §1, §2, §3

Chain of human GLP1R (P43220 24-463): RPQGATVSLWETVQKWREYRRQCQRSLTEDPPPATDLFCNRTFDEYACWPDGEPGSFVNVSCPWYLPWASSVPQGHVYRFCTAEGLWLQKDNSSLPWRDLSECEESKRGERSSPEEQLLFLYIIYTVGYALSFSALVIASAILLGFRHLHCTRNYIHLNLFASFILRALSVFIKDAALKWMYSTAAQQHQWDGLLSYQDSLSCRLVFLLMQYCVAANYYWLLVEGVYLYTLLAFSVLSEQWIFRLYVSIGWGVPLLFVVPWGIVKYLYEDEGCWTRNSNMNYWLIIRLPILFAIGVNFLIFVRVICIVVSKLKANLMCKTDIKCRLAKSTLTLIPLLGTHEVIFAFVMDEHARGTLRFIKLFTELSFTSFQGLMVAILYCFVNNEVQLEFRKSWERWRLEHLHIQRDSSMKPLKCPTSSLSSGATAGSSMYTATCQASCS

| Ratio GCGR/GLP1R (human GCGR; Table 7, control molecules) | Compound | EC50 (human GLP1R) [nM] | EC50 (human GCGR) [nM] | GCGR/GLP1R ratio (human GCGR) |
| --- | --- | --- | --- | --- |
| – | CCCCCCCCCCCCCCCC(=O)N[C@@H](CCC(=O)N[C@@H](CCC(=O)NCCCC[C@H](NC(=O)[C@H](CC(=O)O)NC(=O)[C@H](CO)NC(=O)[C@@H](NC(=O)[C@H](Cc1ccccc1)NC(=O)[C@@H](NC(=O)CNC(=O)[C@H](CCC(N)=O)NC(=O)C(C)(C)NC(=O)[C@@H](N)Cc1c[nH]cn1)[C@@H](C)O)[C@@H](C)O)C(=O)N[C@@H](CO)C(=O)N[C@@H](CCCCN)C(=O)N[C@@H](Cc1ccc(O)cc1)C(=O)N[C@@H](CC(C)C)C(=O)N[C@@H](CC(=O)O)C(=O)N[C@@H](CCC(=O)O)C(=O)N[C@@H](CCCNC(=N)N)C(=O)N[C@@H](C)C(=O)N[C@@H](C)C(=O)N[C@@H](CCC(N)=O)C(=O)N[C@@H](CC(=O)O)C(=O)N[C@@H](Cc1ccccc1)C(=O)N[C@H](C(=O)N[C@@H](CCCCN=[N+]=[N-])C(=O)N[C@@H](Cc1c[nH]c2ccccc12)C(=O)N[C@@H](CC(C)C)C(=O)N[C@@H](CC(C)C)C(=O)N[C@@H](CC(=O)O)C(=O)NCC(=O)N[C@@H](CCCNC(=N)N)C(=O)NCC(N)=O)C(C)C)C(=O)O)C(=O)O [PEP2] | 0.03 | 0.11 | 3.7 |
| – | CCCCCCCCCCCCCCCC(=O)N[C@@H](CCC(=O)N[C@@H](CCC(=O)NCCCC[C@H](NC(=O)[C@H](CC(=O)O)NC(=O)[C@H](CO)NC(=O)[C@@H](NC(=O)[C@H](Cc1ccccc1)NC(=O)[C@@H](NC(=O)CNC(=O)[C@H](CCC(N)=O)NC(=O)[C@@H](CO)NC(=O)[C@@H](N)Cc1c[nH]cn1)[C@@H](C)O)[C@@H](C)O)C(=O)N[C@@H](CO)C(=O)N[C@@H](CCCCN)C(=O)N[C@@H](Cc1ccc(O)cc1)C(=O)N[C@@H](CC(C)C)C(=O)N[C@@H](CC(=O)O)C(=O)N[C@@H](CC(N)=O)C(=O)N[C@@H](CCCCN)C(=O)N[C@@H](CCCNC(=N)N)C(=O)N[C@@H](C)C(=O)N[C@@H](CCC(N)=O)C(=O)N[C@@H](CC(=O)O)C(=O)N[C@@H](Cc1ccccc1)C(=O)N[C@H](C(=O)N[C@@H](CCCCN=[N+]=[N-])C(=O)N[C@@H](Cc1c[nH]c2ccccc12)C(=O)N[C@@H](CC(C)C)C(=O)N[C@@H](CC(C)C)C(=O)N[C@@H](CCC(N)=O)C(=O)N[C@H](C(N)=O)[C@@H](C)O)C(C)C)C(=O)O)C(=O)O [PEP12] | 0.07 | 0.02 | 0.3 |
| – | CCCCCCCCCCCCCCCC(=O)N[C@@H](CCC(=O)N[C@@H](CCC(=O)NCCCC[C@H](NC(=O)[C@H](CC(=O)O)NC(=O)[C@H](CO)NC(=O)[C@@H](NC(=O)[C@H](Cc1ccccc1)NC(=O)[C@@H](NC(=O)CNC(=O)[C@H](CCC(N)=O)NC(=O)[C@@H](CO)NC(=O)[C@@H](N)Cc1c[nH]cn1)[C@@H](C)O)[C@@H](C)O)C(=O)N[C@@H](CO)C(=O)N[C@@H](CCCCN)C(=O)N[C@@H](Cc1ccc(O)cc1)C(=O)N[C@@H](CC(C)C)C(=O)N[C@@H](CC(=O)O)C(=O)N[C@@H](CCC(=O)O)C(=O)N[C@@H](CCCNC(=N)N)C(=O)N[C@@H](C)C(=O)N[C@@H](C)C(=O)N[C@@H](CCC(N)=O)C(=O)N[C@@H](CC(=O)O)C(=O)N[C@@H](Cc1ccccc1)C(=O)N[C@H](C(=O)N[C@@H](CCCCNC(=O)COCCOCCNC(=O)CCCCN=[N+]=[N-])C(=O)N[C@@H](Cc1c[nH]c2ccccc12)C(=O)N[C@@H](CC(C)C)C(=O)N[C@@H](CC(C)C)C(=O)N[C@@H](CC(=O)O)C(=O)N[C@H](C(N)=O)[C@@H](C)O)C(C)C)C(=O)O)C(=O)O [PEP14] | 0.07 | 0.05 | 0.8 |
| – | CC(C)C[C@H](NC(=O)[C@H](Cc1c[nH]c2ccccc12)NC(=O)[C@H](CCC(N)=O)NC(=O)[C@@H](NC(=O)[C@H](Cc1ccccc1)NC(=O)[C@H](CC(=O)O)NC(=O)[C@H](CCC(N)=O)NC(=O)[C@H](C)NC(=O)[C@H](C)NC(=O)[C@H](CCCNC(=N)N)NC(=O)C(C)(C)NC(=O)[C@H](CC(=O)O)NC(=O)[C@H](CC(C)C)NC(=O)[C@H](Cc1ccc(O)cc1)NC(=O)[C@H](CCCCN)NC(=O)[C@H](CO)NC(=O)[C@H](Cc1ccc(O)cc1)NC(=O)[C@H](CC(=O)O)NC(=O)[C@H](CO)NC(=O)[C@@H](NC(=O)[C@H](Cc1ccccc1)NC(=O)[C@@H](NC(=O)CNC(=O)[C@H](CCC(N)=O)NC(=O)C(C)(C)NC(=O)[C@@H](N)Cc1c[nH]cn1)[C@@H](C)O)[C@@H](C)O)C(C)C)C(=O)N[C@@H](CC(C)C)C(=O)N[C@@H](CC(=O)O)C(=O)N[C@H](C(=O)N[C@@H](CCCCN)C(=O)N[C@@H](CCCCNC(=O)COCCOCCNC(=O)COCCOCCNC(=O)CC[C@H](NC(=O)CCCCCCCCCCCCCCCN=[N+]=[N-])C(=O)O)C(N)=O)[C@@H](C)O [PEP28] | 0.16 | 0.17 | 1.1 |
| – | CC(C)C[C@H](NC(=O)[C@H](Cc1ccc(O)cc1)NC(=O)[C@H](CCCCN)NC(=O)[C@H](CO)NC(=O)[C@H](CCCCN)NC(=O)[C@H](CC(=O)O)NC(=O)[C@H](CO)NC(=O)[C@@H](NC(=O)[C@H](Cc1ccccc1)NC(=O)[C@@H](NC(=O)CNC(=O)[C@H](CCC(N)=O)NC(=O)[C@@H](CO)NC(=O)[C@@H](N)Cc1c[nH]cn1)[C@@H](C)O)[C@@H](C)O)C(=O)N[C@@H](CC(=O)O)C(=O)N[C@@H](CCC(=O)O)C(=O)N[C@@H](CCCNC(=N)N)C(=O)N[C@@H](C)C(=O)N[C@@H](C)C(=O)N[C@@H](CCC(N)=O)C(=O)N[C@@H](CC(=O)O)C(=O)N[C@@H](Cc1ccccc1)C(=O)N[C@H](C(=O)N[C@@H](CCC(N)=O)C(=O)N[C@@H](Cc1c[nH]c2ccccc12)C(=O)N[C@@H](CC(C)C)C(=O)N[C@@H](CC(C)C)C(=O)N[C@@H](CC(=O)O)C(=O)N[C@H](C(=O)N[C@@H](CCCCN=[N+]=[N-])C(N)=O)[C@@H](C)O)C(C)C [PEP73] | – | – | 0.6 |
| – | CC(C)C[C@H](NC(=O)[C@H](Cc1ccc(O)cc1)NC(=O)[C@H](CCCCN)NC(=O)[C@H](CO)NC(=O)[C@H](Cc1ccc(O)cc1)NC(=O)[C@H](CC(=O)O)NC(=O)[C@H](CO)NC(=O)[C@@H](NC(=O)[C@H](Cc1ccccc1)NC(=O)[C@@H](NC(=O)CNC(=O)[C@H](CCC(N)=O)NC(=O)[C@@H](CO)NC(=O)[C@@H](N)Cc1c[nH]cn1)[C@@H](C)O)[C@@H](C)O)C(=O)N[C@@H](CC(=O)O)C(=O)N[C@@H](CCC(=O)O)C(=O)N[C@@H](CCCNC(=N)N)C(=O)N[C@@H](C)C(=O)N[C@@H](C)C(=O)N[C@@H](CCC(N)=O)C(=O)N[C@@H](CCCCNC(=O)COCCOCCNC(=O)COCCOCCNC(=O)CC[C@H](NC(=O)CCCCCCCCCCCCCCCN=[N+]=[N-])C(=O)O)C(=O)N[C@@H](Cc1ccccc1)C(=O)N[C@H](C(=O)N[C@@H](CCC(N)=O)C(=O)N[C@@H](Cc1c[nH]c2ccccc12)C(=O)N[C@@H](CC(C)C)C(=O)N[C@@H](CC(C)C)C(=O)N[C@@H](CC(=O)O)C(=O)N[C@H](C(N)=O)[C@@H](C)O)C(C)C [PEP27] | 0.06 | 0.39 | 6.5 |
| 1.3 | CCCCCCCCCCCCCCCC(=O)N[C@@H](CCC(=O)N[C@@H](CCC(=O)NCCCC[C@H](NC(=O)[C@H](CC(=O)O)NC(=O)[C@H](CO)NC(=O)[C@@H](NC(=O)[C@H](Cc1ccccc1)NC(=O)[C@@H](NC(=O)CNC(=O)[C@H](CCC(N)=O)NC(=O)[C@@H](CO)NC(=O)[C@@H](N)Cc1c[nH]cn1)[C@@H](C)O)[C@@H](C)O)C(=O)N[C@@H](CO)C(=O)N[C@@H](CCCCN)C(=O)N[C@@H](Cc1ccc(O)cc1)C(=O)N[C@@H](CC(C)C)C(=O)N[C@@H](CC(=O)O)C(=O)N[C@@H](CCC(=O)O)C(=O)N[C@@H](CCCNC(=N)N)C(=O)N[C@@H](C)C(=O)N[C@@H](C)C(=O)N[C@@H](CCC(N)=O)C(=O)N[C@@H](CC(=O)O)C(=O)N[C@@H](Cc1ccccc1)C(=O)N[C@H](C(=O)N[C@@H](CCC(N)=O)C(=O)N[C@@H](Cc1c[nH]c2ccccc12)C(=O)N[C@@H](CC(C)C)C(=O)N[C@@H](CC(C)C)C(=O)N[C@@H](CC(=O)O)C(=O)N[C@H](C(N)=O)[C@@H](C)O)C(C)C)C(=O)O)C(=O)O [PEP76, reference compound] | – | – | – |
| – | CC(C)C[C@H](NC(=O)[C@H](Cc1ccc(O)cc1)NC(=O)[C@H](CCCCN)NC(=O)[C@H](CO)NC(=O)[C@H](Cc1ccc(O)cc1)NC(=O)[C@H](CC(=O)O)NC(=O)[C@H](CO)NC(=O)[C@@H](NC(=O)[C@H](Cc1ccccc1)NC(=O)[C@@H](NC(=O)CNC(=O)[C@H](CCC(N)=O)NC(=O)C(C)(C)NC(=O)[C@@H](N)Cc1c[nH]cn1)[C@@H](C)O)[C@@H](C)O)C(=O)N[C@@H](CC(=O)O)C(=O)N[C@@H](C)C(=O)N[C@@H](CCCNC(=N)N)C(=O)N[C@@H](C)C(=O)N[C@@H](C)C(=O)N[C@@H](CCCCNC(=O)COCCOCCNC(=O)COCCOCCNC(=O)CC[C@H](NC(=O)CCCCCCCCCCCCCCCCCCC(=O)O)C(=O)O)C(=O)N[C@@H](CC(=O)O)C(=O)N[C@@H](Cc1ccccc1)C(=O)N[C@H](C(=O)N[C@@H](CCCCN=[N+]=[N-])C(=O)N[C@@H](Cc1c[nH]c2ccccc12)C(=O)N[C@@H](CC(C)C)C(=O)N[C@@H](CCS(C)(=O)=O)C(=O)N[C@@H](CC(=O)O)C(=O)N[C@H](C(N)=O)[C@@H](C)O)C(C)C [PEP31] | – | – | 3.1 |
| – | CC(C)C[C@H](NC(=O)[C@H](Cc1ccc(O)cc1)NC(=O)[C@H](CCCCN)NC(=O)[C@H](CO)NC(=O)[C@H](CCCCNC(=O)COCCOCCNC(=O)COCCOCCNC(=O)CC[C@H](NC(=O)CCCCCCCCCCCCCCCCC(=O)O)C(=O)O)NC(=O)[C@H](CC(=O)O)NC(=O)[C@H](CO)NC(=O)[C@@H](NC(=O)[C@H](Cc1ccccc1)NC(=O)[C@@H](NC(=O)CNC(=O)[C@H](CCC(N)=O)NC(=O)[C@@H](CO)NC(=O)[C@@H](N)Cc1c[nH]cn1)[C@@H](C)O)[C@@H](C)O)C(=O)N[C@@H](CC(=O)O)C(=O)N[C@@H](CCC(=O)O)C(=O)N[C@@H](CCCNC(=N)N)C(=O)N[C@@H](C)C(=O)N[C@@H](C)C(=O)N[C@@H](CCC(N)=O)C(=O)N[C@@H](CC(=O)O)C(=O)N[C@@H](Cc1ccccc1)C(=O)N[C@H](C(=O)N[C@@H](CCCCN=[N+]=[N-])C(=O)N[C@@H](Cc1c[nH]c2ccccc12)C(=O)N[C@@H](CC(C)C)C(=O)N[C@@H](CC(C)C)C(=O)N[C@@H](CC(=O)O)C(=O)N[C@H](C(N)=O)[C@@H](C)O)C(C)C [PEP29] | – | – | 1.0 |
| – | HsQGTGTSD-K(γEγEC16)SKYLDURAAQDFV-Nle(ϵN3)-WLLDT-NH2 [PEP7] | – | – | 0.2 |
